Columns and labels:
Format in all cases: physicochemical
[1] = Measurement of Δn (refractive index anisotropy), wedge-shaped liquid crystal cell; conditions: 550 nm, 30° C. or lower limit temperature of nematic phase +0 to 10° C.; some compounds extrapolated from 1/2 mixture with L-1-1
Protocol: The Δn of each of the compounds (the compounds A-1 to A-11 and the compounds B-1 and B-2), which are the compounds to be measured, was measured by a method using a wedge-shaped liquid crystal cell described on page 202 in the Liquid crystal handbook (edited by the liquid crystal handbook editorial board, published by Maruzen Co., Ltd., 2000). Δn was defined as a measured value at a wavelength of 550 nm at 30° C. or the lower limit temperature of the nematic phase +0° C. to 10° C. In a case of a compound which is liable to crystallize or a compound having no liquid crystallinity, evaluation was carried out using a mixture thereof with the other liquid crystal compound, and Δn was estimated from the extrapolated value of the measured value thereof. The following L-1-1 was used as the other liquid crystal compound. As the above mixture, a mixture obtained by mixing at a ratio of the compound to be measured/the L-1-1=1/2 (in terms of mass ratio) was used.
A case where Δn was 0.40 or more was evaluated as A, a case where Δn was 0.35 or more and less than 0.40 was evaluated as B, a case where Δn was 0.30 or more and less than 0.35 was evaluated as C, and a case where Δn was less than 0.30 was evaluated as D. The results are shown in Table 1.

[2] = Evaluation of solubility in cyclopentanone; conditions: precipitation concentration in cyclopentanone at 25° C.
Protocol: The solubility of each of the compounds (the compounds A-1 to A-11 and the compounds B-1 and B-2) in cyclopentanone was evaluated.

[3] = Evaluation of durability of optically anisotropic layer (moisture-heat resistance test); conditions: rate of change in Re of cured layer (25 parts compound, 75 parts L-1), 136 hours at 100° C., humidity 95%
Protocol: (§1) As shown below, the light resistance and the durability of the optically anisotropic layer produced using the composition containing each of the compounds A-1 to A-11 and the compounds B-1 and B-2 were evaluated.
(§2) A coating liquid having the following composition was prepared and applied by spin-coating, onto a rubbing-treated glass attached with an alignment film. Each composition was irradiated with ultraviolet rays of 300 mJ/cm^2 through a filter that cuts light having a wavelength of 350 nm or less on a hot plate which had been heated to a temperature at which a nematic phase is shown, whereby an optically anisotropic layer for a light resistance/durability test was produced.
(§3) The polymerizable liquid crystal compound L-1 is a mixture obtained by mixing at a
(§4) ratio of the following L-1-1/L-1-2/L-1-3=84/14/2 (in terms of mass ratio).
(§5) Rate of change in Re (%)=[100×{|(Re after test)−(Re before test)|}/(Re before test)]
(§6) Re was measured with Axoscan manufactured by Axometrics Inc. at a wavelength of 550 nm, and the measurement temperature was set to room temperature.
The produced optically anisotropic layer was allowed to be left for 136 hours at 100° C. and a humidity of 95%, whereby a moisture-heat resistance test was carried out. The rate of change in Re before and after the durability test was evaluated, the durability in a case where the rate of change in Re was less than 10% was evaluated as A, and the durability in a case where the rate of change in Re was 10% or more was evaluated as B. The smaller the rate of change in Re, the more excellent the durability.

[4] = Evaluation of liquid crystallinity (hot stage, polarization microscope); parameters: key: A case of having liquid crystallinity was evaluated as A; a case of having no liquid crystallinity was evaluated as B; conditions: heated on a hot stage
Protocol: The respective compounds (the compounds A-1 to A-11 and the compounds B-1 and B-2) were heated on a hot stage and observed with a polarization microscope, and the phase transition temperature was measured to evaluate the presence or absence of the liquid crystallinity. A case of having liquid crystallinity was evaluated as A, and a case of having no liquid crystallinity was evaluated as B. The results are shown in Table 1.
Since the compound A-8 has melting points of 200° C. or higher and undergoes a polymerization reaction during heating, liquid crystallinity could not be evaluated.

[5] = Evaluation of light resistance of optically anisotropic layer (Super Xenon Weather Meter); conditions: rate of change in Re of cured layer (25 parts compound, 75 parts L-1), 5 million lx, 50 hours, 63° C., 50% RH, oxygen-blocking
Protocol: as §1, §2, §3, §4
The produced optically anisotropic layers for light resistance/durability tests were irradiated with light using a Super Xenon Weather Meter SX75 manufactured by Suga Test Instruments Co., Ltd. Using KU-1000100 manufactured by King Seisakusho Co., Ltd. as a UV cut filter, a light resistance test was carried out by irradiation with 5 million lx of light for 50 hours under an oxygen-blocking condition. The temperature of the specimen to be tested (the temperature inside the test device) was set to 63° C. The relative humidity in the test device was 50% RH.
The Re of the optically anisotropic layer before and after the light resistance test was measured, the light resistance in a case where the rate of change in Re described below was less than 10% was evaluated as A, and the light resistance in a case where the rate of change in Re was 10% or more was evaluated as B. The smaller the rate of change in Re, the more excellent the light resistance.
as §5, §6

Liquid crystallinity [4] | Structure (SMILES) | Δn [1] | Solubility [2] | Durability [3] | Light resistance [5]
A | C=CC(=O)OCCc1ccc(C#Cc2ccc(OCc3ccc4cc(C#Cc5ccc(CCOC(=O)C=C)cc5)ccc4c3)c(C(=O)OC)c2)cc1 [Compound A-11] | B (a case where Δn was 0.35 or more and less than 0.40 was evaluated as B) | A (the solubility in a case where the precipitation concentration was 5% by mass or more was evaluated as A) | A (the durability in a case where the rate of change in Re was less than 10% was evaluated as A) | A (the light resistance in a case where the rate of change in Re described below was less than 10% was evaluated as A)
A | C=CC(=O)OCCc1ccc(C#Cc2ccc(-c3ccc(COc4ccc(C#Cc5ccc(CCOC(=O)C=C)cc5)cc4C(=O)OC)cc3)cc2)cc1 [Compound A-1] | B (a case where Δn was 0.35 or more and less than 0.40 was evaluated as B) | A (the solubility in a case where the precipitation concentration was 5% by mass or more was evaluated as A) | A (the durability in a case where the rate of change in Re was less than 10% was evaluated as A) | A (the light resistance in a case where the rate of change in Re described below was less than 10% was evaluated as A)
A | C=CC(=O)OCCSc1ccc(C#Cc2ccc(-c3ccc(COc4ccc(C#Cc5ccc(SCCOC(=O)C=C)cc5)cc4C(=O)OC)cc3)cc2)cc1 [Compound A-6] | A (A case where Δn was 0.40 or more was evaluated as A) | A (the solubility in a case where the precipitation concentration was 5% by mass or more was evaluated as A) | A (the durability in a case where the rate of change in Re was less than 10% was evaluated as A) | A (the light resistance in a case where the rate of change in Re described below was less than 10% was evaluated as A)
A | C=CC(=O)OCCSc1ccc(C#Cc2ccc(OCc3ccc4cc(C#Cc5ccc(SCCOC(=O)C=C)cc5)ccc4c3)c(C(=O)OC)c2)cc1 [Compound A-2] | A (A case where Δn was 0.40 or more was evaluated as A) | A (the solubility in a case where the precipitation concentration was 5% by mass or more was evaluated as A) | A (the durability in a case where the rate of change in Re was less than 10% was evaluated as A) | A (the light resistance in a case where the rate of change in Re described below was less than 10% was evaluated as A)
A | COC(=O)c1cc(C#Cc2ccc(CCOC(C)=O)cc2)ccc1OCc1ccc(-c2ccc(C#Cc3ccc(CCOC(C)=O)cc3)cc2)cc1 [Compound A-7] | B (a case where Δn was 0.35 or more and less than 0.40 was evaluated as B) | A (the solubility in a case where the precipitation concentration was 5% by mass or more was evaluated as A) | B (the durability in a case where the rate of change in Re was 10% or more was evaluated as B) | A (the light resistance in a case where the rate of change in Re described below was less than 10% was evaluated as A)

The next lines start with the compound.

Structure (SMILES) | Liquid crystallinity [4] | Δn [1] | Solubility [2] | Durability [3] | Light resistance [5]
C=CC(=O)OCCCCOc1ccc(C(=O)Nc2ccc(C#Cc3ccc4cc(OCCCCOC(=O)C=C)ccc4c3)cc2C(F)(F)F)cc1 [Compound B-2, reference compound] | A | C (a case where Δn was 0.30 or more and less than 0.35 was evaluated as C) | A (the solubility in a case where the precipitation concentration was 5% by mass or more was evaluated as A) | A (the durability in a case where the rate of change in Re was less than 10% was evaluated as A) | A (the light resistance in a case where the rate of change in Re described below was less than 10% was evaluated as A)
C=CC(=O)OCCSc1ccc(C#Cc2ccc(OC(=O)c3ccc4cc(C#Cc5ccc(SCCOC(=O)C=C)cc5)ccc4c3)c(C(=O)OC)c2)cc1 [Compound A-10] | A | A (A case where Δn was 0.40 or more was evaluated as A) | A (the solubility in a case where the precipitation concentration was 5% by mass or more was evaluated as A) | A (the durability in a case where the rate of change in Re was less than 10% was evaluated as A) | B (the light resistance in a case where the rate of change in Re was 10% or more was evaluated as B)
C=CC(=O)OCCSc1ccc(C#Cc2ccc(OCc3ccc4cc(C#Cc5ccc(SCCOC(=O)C=C)cc5)ccc4c3)cc2)cc1 [Compound A-8] | – | A (A case where Δn was 0.40 or more was evaluated as A) | B (the solubility in a case where the precipitation concentration was less than 5% by mass was evaluated as B) | A (the durability in a case where the rate of change in Re was less than 10% was evaluated as A) | A (the light resistance in a case where the rate of change in Re described below was less than 10% was evaluated as A)
CC(=O)OCCCCCCCCCCOc1ccc(C#Cc2ccc(OC(=O)c3ccc(C#Cc4ccc(OCCCCCCCCCCOC(C)=O)c(F)c4)cc3)cc2)cc1F [Compound B-1, reference compound] | A | D (a case where Δn was less than 0.30 was evaluated as D) | A (the solubility in a case where the precipitation concentration was 5% by mass or more was evaluated as A) | A (the durability in a case where the rate of change in Re was less than 10% was evaluated as A) | B (the light resistance in a case where the rate of change in Re was 10% or more was evaluated as B)
C=CC(=O)OCCSc1ccc(C#Cc2cc(C)c(OCc3ccc4cc(C#Cc5ccc(SCCOC(=O)C=C)cc5)ccc4c3)c(C)c2)cc1 [Compound A-4] | A | A (A case where Δn was 0.40 or more was evaluated as A) | A (the solubility in a case where the precipitation concentration was 5% by mass or more was evaluated as A) | A (the durability in a case where the rate of change in Re was less than 10% was evaluated as A) | A (the light resistance in a case where the rate of change in Re described below was less than 10% was evaluated as A)
C=CC(=O)OCCSc1ccc(C#Cc2ccc(OCc3ccc4cc(C#Cc5ccc(SCCOC(=O)C=C)cc5)ccc4c3)c(C(=O)OCC)c2)cc1 [Compound A-3] | A | A (A case where Δn was 0.40 or more was evaluated as A) | A (the solubility in a case where the precipitation concentration was 5% by mass or more was evaluated as A) | A (the durability in a case where the rate of change in Re was less than 10% was evaluated as A) | A (the light resistance in a case where the rate of change in Re described below was less than 10% was evaluated as A)

Source: US20240182785A1, “COMPOUND, COMPOSITION, CURED PRODUCT, OPTICALLY ANISOTROPIC BODY, OPTICAL ELEMENT, AND LIGHT GUIDE ELEMENT” (FUJIFILM Corporation, priority 2021, published 2024)
